Test results reported in ChEMBL document CHEMBL3045663, “Synthesis and Activity of Novel Acaricidal/Insecticidal 2, 4-Diphenyl-1, 3-oxazolines” (J Pestic Sci, 2002).
Converted amounts (≈) assume the structure as drawn.

Legend:
Assay type in all cases: functional
Tetranychus urticae [1] = assay: Acaricidal activity against Tetranychus urticae (two-spotted spider mite) in compound treated kidney bean leaf assessed as mortality of egg at 1000 ppm at 24 degC measured after 1 week; conditions: 168 h
Myzus persicae = assay: Insecticidal activity against Myzus persicae (green peach aphid) in compound treated radish leaf assessed as mortality at 500 ppm
Tetranychus urticae [2] = assay: Acaricidal activity against Tetranychus urticae (two-spotted spider mite) in compound treated kidney bean leaf assessed as larvicidal activity
Nephotettix cincticeps = assay: Insecticidal activity against Nephotettix cincticeps (green rice leafhopper) in compound treated rice seedlings assessed as mortality at 500 ppm
Plutella xylostella = assay: Insecticidal activity against Plutella xylostella (diamondback moth) in compound treated radish leaf assessed as mortality at 500 ppm

Row | SMILES | mortality at 1000 ppm (Tetranychus urticae [1]) [%] | mortality at 500 ppm (Myzus persicae) [%] | LC50 (Tetranychus urticae [2]) [µg/mL] | mortality at 500 ppm (Nephotettix cincticeps) [%] | mortality at 500 ppm (Plutella xylostella) [%]
1 | Clc1cccc(C2=NC(c3ccccc3)CO2)c1 (stereo not drawn) | 10 | 0 | 100 (≈ 388 µM) | 0 | 60
2 | Ic1ccccc1C1=NC(c2ccccc2)CO1 (stereo not drawn) | 10 | 0 | 1 (≈ 2.86 µM) | 0 | 35
3 | Cc1ccc(C2=NC(c3ccccc3)CO2)cc1 (stereo not drawn) | 0 | 0 | > 1000 | 0 | 0
4 | Fc1cccc(F)c1C1=NCC(c2ccccc2)S1 (stereo not drawn) | 0 | 0 | 100 (≈ 363 µM) | 0 | 0
5 | Fc1cccc(Cl)c1C1=NC(c2ccccc2)CO1 (stereo not drawn) | 0 | 10 | 0.01 (≈ 0.0363 µM) | 35 | 0
6 | Clc1ccc(C2=NC(c3ccccc3)CO2)cc1 (stereo not drawn) | 0 | 0 | 100 (≈ 388 µM) | 0 | 60
7 | CCOc1ccccc1C1=NC(c2ccccc2)CO1 (stereo not drawn) | 0 | 0 | > 1000 | 0 | 0
8 | CC1(c2ccccc2)COC(c2c(F)cccc2F)=N1 (stereo not drawn) | 0 | 0 | 100 (≈ 366 µM) | 0 | 0
9 | CCSc1ccccc1C1=NC(c2ccccc2)CO1 (stereo not drawn) | 10 | 0 | 100 (≈ 353 µM) | 10 | 10
10 | COc1ccccc1C1=NC(c2ccccc2)CO1 (stereo not drawn) | 0 | 0 | 10 (≈ 39.5 µM) | 10 | 10
11 | Cc1ccccc1C1=NC(c2ccccc2)CO1 (stereo not drawn) | 60 | 60 | 100 (≈ 421 µM) | 0 | 60
12 | Clc1cccc(Cl)c1C1=NC(c2ccccc2)CO1 (stereo not drawn) | 0 | 10 | 1 (≈ 3.42 µM) | 0 | 10
13 | Fc1cccc(F)c1-c1nc(-c2ccccc2)co1 | 0 | 0 | 100 (≈ 389 µM) | 10 | 0
14 | Cc1cccc(C2=NC(c3ccccc3)CO2)c1 (stereo not drawn) | 0 | 0 | > 1000 | 10 | 0
15 | Clc1ccc(Cl)c(C2=NC(c3ccccc3)CO2)c1 (stereo not drawn) | 0 | 0 | 100 (≈ 342 µM) | 0 | 35
16 | Clc1cccc(C2=NC(c3ccccc3)CO2)c1Cl (stereo not drawn) | 0 | 0 | 10 (≈ 34.2 µM) | 0 | 0
17 | Fc1cccc(F)c1C1=NC(c2ccccc2)CS1 (stereo not drawn) | 0 | 0 | 10 (≈ 36.3 µM) | 0 | 0
18 | c1ccc(Oc2ccccc2C2=NC(c3ccccc3)CO2)cc1 (stereo not drawn) | 0 | 0 | 100 (≈ 317 µM) | 0 | 0
19 | c1ccc(C2=NC(c3ccccc3)CO2)cc1 (stereo not drawn) | 0 | 0 | 10 (≈ 44.8 µM) | 0 | 60
20 | CCCCCCCCOc1ccc(C2COC(c3c(F)cccc3F)=N2)cc1 (stereo not drawn) |  | 85 | < 0.001 | 0 | 60
21 | COc1ccc(C2=NC(c3ccccc3)CO2)cc1 (stereo not drawn) | 0 | 0 | 100 (≈ 395 µM) | 10 | 0
22 | Fc1cccc(F)c1C1=NC(c2ccc(Cl)cc2Cl)CO1 (stereo not drawn) |  | 100 | 0.01 (≈ 0.0305 µM) | 60 | 60
23 | FC(F)(F)c1ccccc1C1=NC(c2ccccc2)CO1 (stereo not drawn) | 0 | 10 | 100 (≈ 343 µM) | 0 | 35
24 | CCOc1cc(C(C)(C)C)ccc1C1COC(c2c(F)cccc2F)=N1 (stereo not drawn) [ETOXAZOLE] |  | 100 | 0.001 (≈ 0.00278 µM) | 100 | 100
25 | CCCCCc1ccc(C2COC(c3c(F)cccc3F)=N2)c(OCCC)c1 (stereo not drawn) |  | 85 | 0.001 (≈ 0.00258 µM) | 60 | 85
26 | CCCOc1cc(C(C)(C)C)ccc1C1COC(c2c(F)cccc2F)=N1 (stereo not drawn) |  | 100 | 0.001 (≈ 0.00268 µM) | 60 | 85
27 | CCCCCCCCCCCCc1ccc(C2COC(c3c(F)cccc3F)=N2)cc1 (stereo not drawn) |  | 85 | < 0.001 | 0 | 100

Row | SMILES | mortality at 1000 ppm (Tetranychus urticae [1]) [%] | mortality at 500 ppm (Myzus persicae) [%] | LC50 (Tetranychus urticae [2]) [µg/mL] | mortality at 500 ppm (Nephotettix cincticeps) [%] | mortality at 500 ppm (Plutella xylostella) [%]
28 | CCCCCCCCCCc1ccc(C2COC(c3c(F)cccc3F)=N2)cc1 (stereo not drawn) |  | 85 | < 0.001 | 0 | 100
29 | Fc1cccc(F)c1C1=NC(c2ccc(OCC(F)(F)F)cc2)CO1 (stereo not drawn) |  | 100 | < 0.001 | 100 | 35
30 | CCCCCCCCCc1ccc(C2COC(c3c(F)cccc3F)=N2)c(OC)c1 (stereo not drawn) |  | 100 | 0.001 (≈ 0.00241 µM) | 10 | 100
31 | Fc1cccc(F)c1C1=NC(c2ccccc2Cl)CO1 (stereo not drawn) |  | 100 | 0.1 (≈ 0.34 µM) | 85 | 35
32 | CCOc1cc(C(C)C)ccc1C1COC(c2c(F)cccc2F)=N1 (stereo not drawn) |  | 100 | 0.01 (≈ 0.029 µM) | 100 | 60
33 | Fc1cccc(F)c1C1=NC(c2ccc(Cl)cc2)CO1 (stereo not drawn) |  | 0 | 0.001 (≈ 0.0034 µM) | 60 | 0
34 | Fc1ccc(C2COC(c3c(F)cccc3F)=N2)cc1 (stereo not drawn) |  | 85 | 0.1 (≈ 0.361 µM) | 10 | 85
35 | CCc1ccc(C2COC(c3c(F)cccc3F)=N2)c(F)c1 (stereo not drawn) |  | 0 | 0.1 (≈ 0.328 µM) | 0 | 0
36 | COc1ccccc1C1COC(c2c(F)cccc2F)=N1 (stereo not drawn) |  | 0 | 10 (≈ 34.6 µM) | 10 | 0
37 | CCCCOc1cc(F)ccc1C1COC(c2c(F)cccc2F)=N1 (stereo not drawn) |  | 60 | < 0.001 | 100 | 85
38 | CCCCCCc1ccc(C2COC(c3c(F)cccc3F)=N2)c(F)c1 (stereo not drawn) |  | 100 | < 0.001 | 60 | 100
39 | CCOc1cccc(C2COC(c3c(F)cccc3F)=N2)c1 (stereo not drawn) |  | 0 | 1 (≈ 3.3 µM) | 0 | 0
40 | CC(C)(C)c1ccc(C2COC(c3c(F)cccc3F)=N2)cc1 (stereo not drawn) |  | 100 | < 0.001 | 60 | 0
41 | CCOc1ccc(C2COC(c3c(F)cccc3F)=N2)cc1 (stereo not drawn) |  | 100 | 0.001 (≈ 0.0033 µM) | 0 | 35
42 | Cc1ccc(C2COC(c3c(F)cccc3F)=N2)c(C)c1 (stereo not drawn) |  | 100 | 10 (≈ 34.8 µM) | 100 | 35
43 | Fc1ccc(C2COC(c3c(F)cccc3F)=N2)c(Cl)c1 (stereo not drawn) |  | 100 | 0.1 (≈ 0.321 µM) | 35 | 0
44 | CCCCCCCCCCCCc1ccc(C2COC(c3c(F)cccc3F)=N2)c(F)c1 (stereo not drawn) |  | 0 | 0.01 (≈ 0.0224 µM) | 0 | 100
45 | Oc1ccc(C2COC(c3c(F)cccc3F)=N2)cc1 (stereo not drawn) |  | 0 | 10 (≈ 36.3 µM) | 60 | 10
46 | Fc1cccc(F)c1C1=NC(c2ccc(C(F)(F)F)cc2)CO1 (stereo not drawn) |  | 100 | 0.01 (≈ 0.0306 µM) | 60 | 85
47 | CCCCCCc1ccc(C2COC(c3c(F)cccc3F)=N2)cc1 (stereo not drawn) |  | 100 | < 0.001 | 0 | 10
48 | COc1cc(C(C)(C)C)ccc1C1COC(c2c(F)cccc2F)=N1 (stereo not drawn) |  | 100 | 0.001 (≈ 0.0029 µM) | 35 | 85
49 | CCCCCCCCCCCCCCOc1ccc(C2COC(c3c(F)cccc3F)=N2)cc1 (stereo not drawn) |  | 60 | 0.01 (≈ 0.0212 µM) | 10 | 85
50 | CCc1ccc(C2COC(c3c(F)cccc3F)=N2)c(Cl)c1 (stereo not drawn) |  | 0 | 0.001 (≈ 0.00311 µM) | 0 | 0
51 | CCc1ccc(C2COC(c3c(F)cccc3F)=N2)cc1 (stereo not drawn) |  | 100 | 0.001 (≈ 0.00348 µM) | 60 | 0
52 | Cc1ccc(C2COC(c3c(F)cccc3F)=N2)cc1C (stereo not drawn) |  | 100 | 1 (≈ 3.48 µM) | 85 | 0
53 | Fc1ccc(C2COC(c3c(F)cccc3F)=N2)c(F)c1 (stereo not drawn) |  | 100 | 0.01 (≈ 0.0339 µM) | 35 | 85
